Source: US9549927B2, “Heteroaryl compounds and uses thereof” (Celgene Avilomics Research, Inc., priority 2012, dated 2017)

What follows are molecules tested against T1, full-length recombinant human Btk protein (Homo sapiens, UniProt Q06187) (assay: Covalent bonding assay, intact protein MALDI mass spectrometry). Details: 60 minutes incubation, 10-fold excess of compound to protein, room temperature.
T1 construct: The full-length recombinant human Btk protein; purchased Invitrogen (Carlsbad, Calif.) Lot #619547Q (catalogue number not given)
Assay type: binding
Method: The following example describes testing certain compounds to determine whether they covalently bind to BTK. The full-length recombinant human Btk protein (Lot #619547Q; 0.35 mg/mL) was obtained from Invitrogen (Carlsbad, Calif.). Btk protein was diluted 2:3 in phosphate-buffered saline and stock concentration (10 mM) of compound was diluted 1:115 in 50% DMSO.
For all compounds, 1 μL of diluted compound was added to 5 μL of diluted protein. These mixtures were then incubated for 60 minutes at a 10-fold excess of compound to protein under room temperature (˜24° C.) conditions.
At the end of the incubation, 5 μL aliquots of the samples were diluted with 15 μL of 0.2% TFA prior to micro C4 ZipTipping® directly onto the MALDI target plate using sinapinic acid as the desorption matrix (10 mg/mL in 0.2% TFA:Acetonitrile 50:50). Samples were immediately analyzed on an ABSciex 4800 MALDI TOF-TOF mass spectrometer.
For intact protein mass measurement, the mass spectrometer was set in linear mode using a pulsed extraction setting of 81,500. Bovine serum albumin (BSA; Sigma, St Louis, Mo.) was used as the standard to calibrate the instrument. These values correspond to the percentage of total protein covalently modified by the tested compound after one hour incubation.

T1 sequence (Q06187 whole entry): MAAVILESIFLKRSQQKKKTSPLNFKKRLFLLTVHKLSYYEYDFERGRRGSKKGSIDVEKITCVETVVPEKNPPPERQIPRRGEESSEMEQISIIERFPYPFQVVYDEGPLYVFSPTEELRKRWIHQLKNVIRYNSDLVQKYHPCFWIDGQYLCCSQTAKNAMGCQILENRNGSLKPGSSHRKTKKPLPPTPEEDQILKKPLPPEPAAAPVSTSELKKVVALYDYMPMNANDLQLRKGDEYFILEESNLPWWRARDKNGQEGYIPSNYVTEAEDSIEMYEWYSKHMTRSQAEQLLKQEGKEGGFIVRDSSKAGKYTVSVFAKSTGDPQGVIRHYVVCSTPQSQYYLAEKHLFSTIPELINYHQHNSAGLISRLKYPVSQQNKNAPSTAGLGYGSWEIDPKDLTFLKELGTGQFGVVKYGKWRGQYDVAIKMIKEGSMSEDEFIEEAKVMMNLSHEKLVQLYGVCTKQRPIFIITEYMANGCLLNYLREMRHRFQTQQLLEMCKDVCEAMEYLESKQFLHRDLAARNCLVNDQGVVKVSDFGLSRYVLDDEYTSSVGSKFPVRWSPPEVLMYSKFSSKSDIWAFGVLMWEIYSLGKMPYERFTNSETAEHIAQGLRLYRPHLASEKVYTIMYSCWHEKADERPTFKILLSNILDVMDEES

Row | Structure (SMILES) | MS % modification
1 | C=CC(=O)Nc1cccc(Nc2nc(Nc3ccc(OCCO)cc3)ncc2F)c1 [Compound I-1, N-(3-((5-fluoro-2-((4-(2-hydroxyethoxyl)phenyl)amino)pyrimidin-4-yl)amino)phenyl)acrylamide] | B (31-69% modification)
2 | C=CC(=O)Nc1cccc(Nc2nc(Nc3ccc(O)cc3)ncc2F)c1 [Compound I-3, N-(3-((5-fluoro-2-((4-hydroxyphenyl)amino)pyrimidin-4-yl)amino)phenyl)acrylamide] | A (>70% modification)
3 | COCCOc1ccc(Nc2ncc(F)c(Nc3cccc(NC(=O)C(O)CO)c3)n2)cc1 (stereo not drawn) [Compound I-4, N-(3-((5-fluoro-2-((4-(2-methoxyethoxyl)phenyl)amino)pyrimidin-4-yl)amino)phenyl)-2,3-dihydroxypropanamide] | C (<30% modification)
4 | O=C(Nc1cccc(Nc2nc(Nc3ccc(OCCO)cc3)ncc2F)c1)C(O)CO (stereo not drawn) [Compound I-5, N-(3-((5-fluoro-2-((4-(2-hydroxyethoxyl)phenyl)amino)pyrimidin-4-yl)amino)phenyl)-2,3-dihydroxypropanamide] | C (<30% modification)
5 | O=C(Nc1cccc(Nc2nc(Nc3ccc(O)cc3)ncc2F)c1)C(O)CO (stereo not drawn) [Compound I-6, N-(3-((5-fluoro-2-((4-hydroxyphenyl)amino)pyrimidin-4-yl)amino)phenyl)-2,3-dihydroxypropanamide] | C (<30% modification)
6 | COCCOc1ccc(Nc2ncc(F)c(Nc3cccc(NC(=O)C4CO4)c3)n2)cc1 (stereo not drawn) [Compound I-19, N-(3-((5-fluoro-2-((4-(2-methoxyethoxyl)phenyl)amino)pyrimidin-4-yl)amino)phenyl)oxirane-2-carboxamide] | A (>70% modification)
